Measured values taken from PubChem BioAssay (NCI).
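Test compounds were applied to cells in 96-well plates for 48 hours at 5 doses. TGI: concentration producing complete growth inhibition.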

How the values were obtained:
Assay in all cases: NCI tumour cell line growth inhibition, 48 h
M19-MEL melanoma = tested on: M19-MEL melanoma
HOP-92 NSCLC = tested on: HOP-92 NSCLC
HCT-15 colon = tested on: HCT-15 colon
DMS 114 small cell lung = tested on: DMS 114 small cell lung
OVCAR-5 ovarian = tested on: OVCAR-5 ovarian
HL-60(TB) leukemia = tested on: HL-60(TB) leukemia
MALME-3M melanoma = tested on: MALME-3M melanoma
ACHN renal = tested on: ACHN renal
UACC-62 melanoma = tested on: UACC-62 melanoma
COLO 205 colon = tested on: COLO 205 colon
DLD-1 colon = tested on: DLD-1 colon
SF-295 CNS = tested on: SF-295 CNS
HCC-2998 colon = tested on: HCC-2998 colon
SK-MEL-5 melanoma = tested on: SK-MEL-5 melanoma
OVCAR-4 ovarian = tested on: OVCAR-4 ovarian
HT29 colon = tested on: HT29 colon
NCI-H23 lung = tested on: NCI-H23 lung
MOLT-4 leukemia = tested on: MOLT-4 leukemia
UO-31 renal = tested on: UO-31 renal
IGROV1 ovarian = tested on: IGROV1 ovarian
A549 NSCLC = tested on: A549 NSCLC
SNB-19 CNS = tested on: SNB-19 CNS
NCI-H226 lung = tested on: NCI-H226 lung
KM12 colon = tested on: KM12 colon
U251 CNS = tested on: U251 CNS
NCI-H460 lung = tested on: NCI-H460 lung
786-0 renal = tested on: 786-0 renal
SF-539 CNS = tested on: SF-539 CNS
SK-MEL-2 melanoma = tested on: SK-MEL-2 melanoma
SW-620 colon = tested on: SW-620 colon
OVCAR-3 ovarian = tested on: OVCAR-3 ovarian
TK-10 renal = tested on: TK-10 renal
XF 498 CNS = tested on: XF 498 CNS
LXFL 529 NSCLC = tested on: LXFL 529 NSCLC
SK-MEL-28 melanoma = tested on: SK-MEL-28 melanoma
HOP-62 NSCLC = tested on: HOP-62 NSCLC
SNB-75 CNS = tested on: SNB-75 CNS
HCT-116 colon = tested on: HCT-116 colon
SR leukemia = tested on: SR leukemia
CCRF-CEM leukemia = tested on: CCRF-CEM leukemia
OVCAR-8 ovarian = tested on: OVCAR-8 ovarian
SF-268 CNS = tested on: SF-268 CNS
K-562 leukemia = tested on: K-562 leukemia
M14 melanoma = tested on: M14 melanoma
UACC-257 melanoma = tested on: UACC-257 melanoma
DMS 273 small cell lung = tested on: DMS 273 small cell lung
CAKI-1 renal = tested on: CAKI-1 renal
NCI-H522 lung = tested on: NCI-H522 lung
RPMI-8226 leukemia = tested on: RPMI-8226 leukemia
KM20L2 colon = tested on: KM20L2 colon
HOP-18 NSCLC = tested on: HOP-18 NSCLC
RXF 393 renal = tested on: RXF 393 renal
SN12C renal = tested on: SN12C renal
LOX IMVI melanoma = tested on: LOX IMVI melanoma
EKVX NSCLC = tested on: EKVX NSCLC
SK-OV-3 ovarian = tested on: SK-OV-3 ovarian
A498 renal = tested on: A498 renal

Compound: O=C(c1ccccc1)c1c(CNCc2ccccc2)n(C(=O)c2ccccc2)c2ccccc12
- TGI (M19-MEL melanoma): > 100 µM
- TGI (HOP-92 NSCLC): 82.1 µM
- TGI (HCT-15 colon): > 100 µM
- TGI (DMS 114 small cell lung): > 100 µM
- TGI (OVCAR-5 ovarian): > 100 µM
- TGI (HL-60(TB) leukemia): 98.7 µM
- TGI (MALME-3M melanoma): > 100 µM
- TGI (ACHN renal): > 100 µM
- TGI (UACC-62 melanoma): > 100 µM
- TGI (COLO 205 colon): > 100 µM
- TGI (DLD-1 colon): > 100 µM
- TGI (SF-295 CNS): 41.7 µM
- TGI (HCC-2998 colon): > 100 µM
- TGI (SK-MEL-5 melanoma): > 100 µM
- TGI (OVCAR-4 ovarian): > 100 µM
- TGI (HT29 colon): > 100 µM
- TGI (NCI-H23 lung): > 100 µM
- TGI (MOLT-4 leukemia): 65.5 µM
- TGI (UO-31 renal): 56.1 µM
- TGI (IGROV1 ovarian): > 100 µM
- TGI (A549 NSCLC): > 100 µM
- TGI (SNB-19 CNS): > 100 µM
- TGI (NCI-H226 lung): > 100 µM
- TGI (KM12 colon): 87.8 µM
- TGI (U251 CNS): > 100 µM
- TGI (NCI-H460 lung): > 100 µM
- TGI (786-0 renal): > 100 µM
- TGI (SF-539 CNS): > 100 µM
- TGI (SK-MEL-2 melanoma): > 100 µM
- TGI (SW-620 colon): > 100 µM
- TGI (OVCAR-3 ovarian): 65.7 µM
- TGI (TK-10 renal): > 100 µM
- TGI (XF 498 CNS): > 100 µM
- TGI (LXFL 529 NSCLC): > 100 µM
- TGI (SK-MEL-28 melanoma): > 100 µM
- TGI (HOP-62 NSCLC): > 100 µM
- TGI (SNB-75 CNS): 27.5 µM
- TGI (HCT-116 colon): > 100 µM
- TGI (SR leukemia): 80.7 µM
- TGI (CCRF-CEM leukemia): > 100 µM
- TGI (OVCAR-8 ovarian): > 100 µM
- TGI (SF-268 CNS): > 100 µM
- TGI (K-562 leukemia): > 100 µM
- TGI (M14 melanoma): > 100 µM
- TGI (UACC-257 melanoma): > 100 µM
- TGI (DMS 273 small cell lung): > 100 µM
- TGI (CAKI-1 renal): > 100 µM
- TGI (NCI-H522 lung): 81.8 µM
- TGI (RPMI-8226 leukemia): 55.1 µM
- TGI (KM20L2 colon): > 100 µM

Compound: CC(=O)OCC1OC(Sc2ccccn2)C=CC1OC(C)=O (configuration not stated)
- TGI (M19-MEL melanoma): > 100 µM
- TGI (HOP-92 NSCLC): > 100 µM
- TGI (DMS 114 small cell lung): > 100 µM
- TGI (OVCAR-5 ovarian): > 100 µM
- TGI (HOP-18 NSCLC): > 100 µM
- TGI (HL-60(TB) leukemia): > 100 µM
- TGI (MALME-3M melanoma): > 100 µM
- TGI (ACHN renal): > 100 µM
- TGI (UACC-62 melanoma): > 100 µM
- TGI (COLO 205 colon): > 100 µM
- TGI (DLD-1 colon): > 100 µM
- TGI (SF-295 CNS): > 100 µM
- TGI (HCC-2998 colon): > 100 µM
- TGI (SK-MEL-5 melanoma): > 100 µM
- TGI (OVCAR-4 ovarian): > 100 µM
- TGI (HT29 colon): > 100 µM
- TGI (RXF 393 renal): > 100 µM
- TGI (NCI-H23 lung): > 100 µM
- TGI (MOLT-4 leukemia): > 100 µM
- TGI (UO-31 renal): > 100 µM
- TGI (IGROV1 ovarian): > 100 µM
- TGI (A549 NSCLC): > 100 µM
- TGI (SNB-19 CNS): > 100 µM
- TGI (SN12C renal): > 100 µM
- TGI (LOX IMVI melanoma): > 100 µM
- TGI (NCI-H226 lung): > 100 µM
- TGI (KM12 colon): > 100 µM
- TGI (U251 CNS): > 100 µM
- TGI (EKVX NSCLC): > 100 µM
- TGI (786-0 renal): > 100 µM
- TGI (SF-539 CNS): > 100 µM
- TGI (SW-620 colon): > 100 µM
- TGI (OVCAR-3 ovarian): > 100 µM
- TGI (TK-10 renal): > 100 µM
- TGI (XF 498 CNS): > 100 µM
- TGI (LXFL 529 NSCLC): > 100 µM
- TGI (SK-MEL-28 melanoma): > 100 µM
- TGI (HOP-62 NSCLC): > 100 µM
- TGI (SNB-75 CNS): > 100 µM
- TGI (HCT-116 colon): > 100 µM
- TGI (SR leukemia): > 100 µM
- TGI (CCRF-CEM leukemia): > 100 µM
- TGI (SK-OV-3 ovarian): > 100 µM
- TGI (OVCAR-8 ovarian): > 100 µM
- TGI (SF-268 CNS): > 100 µM
- TGI (K-562 leukemia): > 100 µM
- TGI (M14 melanoma): > 100 µM
- TGI (UACC-257 melanoma): > 100 µM
- TGI (DMS 273 small cell lung): > 100 µM
- TGI (NCI-H522 lung): > 100 µM
- TGI (A498 renal): > 100 µM
- TGI (KM20L2 colon): > 100 µM
